Results on 19 compounds are retold here after patent US20240182420A1, “MICROBIOCIDAL ISONICOTINIC AMIDE DERIVATIVES” (SYNGENTA CROP PROTECTION AG, priority 2021, published 2024).

For orientation: inhibition of growth means the relative decrease from the control value, in per cent. The low end stands for a response near the control, the high end for a response far below the control. What is called pest or weed control is the degree to which the test organism was suppressed or injured, in per cent. High values mean a strong effect, low ones a weak effect.

In experiment [1] the test system is Botryotinia fuckeliana syn. Botrytis cinerea. Kind of experiment: Botryotinia fuckeliana syn. Botrytis cinerea (gray mould), liquid culture growth inhibition. Type of experiment: cell-based. The following applies: PDB nutrient broth, 24° C., 72 hrs, photometric, vs untreated control. As to the method:
Conidia of the fungus from cryogenic storage were directly mixed into nutrient broth (PDB potato dextrose broth). A DMSO solution of the test compounds was placed into a microtiter plate (96-well format) and the nutrient broth containing the fungal spores was added to it. The test plates were incubated at 24° C. and the inhibition of growth was determined photometrically after 72 hrs.

Experiment [2] has the same test system. Kind of experiment: Botryotinia fuckeliana syn. Botrytis cinerea (grey mold on tomato), tomato plants. The format is in vivo. The following applies: tomato plants cv. Roter Gnom, inoculated two days after application, leaf area covered by disease 5-6 days after application. As to the method:
4-week old tomato plants cv. Roter Gnom are treated sprayed in a spray chamber with the formulated test compound diluted in water. The test plants are inoculated by spraying them with a spore suspension two days after application. The inoculated test plants are incubated at 20° C. and 95% rh in a greenhouse and the percentage leaf area covered by disease is assessed when an appropriate level of disease appears on untreated check plants (5-6 days after application).

For experiment [3], the system named is Glomerella lagenarium syn Colletotrichum lagenarium. Nature of the experiment: Glomerella lagenarium syn. Colletotrichum lagenarium (anthracnose), liquid culture growth inhibition. Type of experiment: cell-based. The following applies: Colletotrichum orbiculare, PDB nutrient broth, 24° C., 72 hrs, 620 nm, vs untreated control. How it is done: (§1) Conidia of the fungus from cryogenic storage were directly mixed into nutrient broth (PDB potato dextrose broth). A DMSO solution of the test compounds was placed into a microtiter plate (96-well format) and the nutrient broth containing the fungal spores was added to it. The test plates were incubated at 24° C. and the inhibition of growth was determined photometrically after 72 hrs at 620 nm.

The test system of experiment [4] is Monographella nivalis syn. Microdochium nivale, Fusarium nivale. Nature of the experiment: Monographella nivalis syn. Microdochium nivale (snow mould, foot rot), liquid culture growth inhibition. Type of experiment: cell-based. The settings on record: PDB nutrient broth, 24° C., 72 hrs, 620 nm, vs untreated control. How it is done: as §1

Some results are limits rather than exact numbers.

`Cc1cccc(Oc2cnc(Cl)cc2C(=O)NCCc2ccc(Cl)cc2Cl)c1` [Compound 1.4, 2-chloro-N-[2-(2,4-dichlorophenyl)ethyl]-5-(3-methylphenoxy)pyridine-4-carboxamide]: the inhibition of growth at 20 ppm in experiment [1] was at least 80%. Also, in experiment [2], the pest or weed control at 200 ppm is at least 50%.

As for `O=C(NCC(F)c1ccc(Cl)cc1Cl)c1c(F)cncc1Oc1cccc(C2CC2)c1` (stereo not drawn) [Compound 1.6, 3-(3-cyclopropyl-phenoxy)-N-[2-(2,4-dichlorophenyl)-2-fluoro-ethyl]-5-fluoro-pyridine-4-carboxamide], the inhibition of growth at 20 ppm in experiment [1] and in experiment [3] was at least 80% in each case. Moreover, the pest or weed control at 200 ppm in experiment [2] is at least 50%.

In the case of `O=C(NCC(F)c1ccc(Cl)cc1Cl)c1cc(C(F)(F)F)ncc1Oc1cccc(C2CC2)c1` (stereo not drawn) [Compound 1.9, 5-(3-cyclopropyl-phenoxy)-N-[2-(2,4-dichlorophenyl)-2-fluoro-ethyl]-2-(trifluoromethyl) pyridine-4-carboxamide], the inhibition of growth at 20 ppm in experiment [1] and in experiment [3] was at least 80% throughout. In addition, in experiment [2], the pest or weed control at 200 ppm was at least 50%.

Turning to `CS(=O)(=O)c1cc(C(=O)NCC(F)c2ccc(Cl)cc2Cl)c(Oc2cccc(C3CC3)c2)cn1` (stereo not drawn) [Compound 1.10, 5-(3-cyclopropyl-phenoxy)-N-[2-(2,4-dichlorophenyl)-2-fluoro-ethyl]-2-methylsulfonyl-pyridine-4-carboxamide], the inhibition of growth at 20 ppm in experiment [1] and in experiment [3] was at least 80% throughout. Besides, in experiment [2], the pest or weed control at 200 ppm was at least 50%.

`O=C(NCC(F)c1ccc(Cl)cc1Cl)c1ccncc1Oc1cccc(C2CC2)c1` (stereo not drawn) [Compound 1.11, 3-(3-cyclopropyl-phenoxy)-N-[2-(2,4-dichlorophenyl)-2-fluoro-ethyl]pyridine-4-carboxamide] registered an inhibition of growth at 20 ppm in experiment [3] of at least 80%. Also, in experiment [2], the pest or weed control at 200 ppm is at least 50%.

On to `O=C(NCCc1ccc(Cl)cc1Cl)c1cc(Cl)ncc1Oc1cccc(C2CC2)c1` [Compound 1.15, 2-chloro-5-(3-cyclopropyl-phenoxy)-N-[2-(2,4-dichlorophenyl)ethyl]pyridine-4-carboxamide], for which the inhibition of growth at 20 ppm in experiment [1] and in experiment [3] was at least 80% throughout. The compound further had a pest or weed control at 200 ppm in experiment [2] of at least 50%.

In the case of `O=C(NCC(F)c1ccc(Cl)cc1Cl)c1cc(Cl)ncc1Oc1cccc(C2CC2)c1` (stereo not drawn) [Compound 1.16, 2-chloro-5-(3-cyclopropyl-phenoxy)-N-[2-(2,4-dichlorophenyl)-2-fluoro-ethyl]pyridine-4-carboxamide], the inhibition of growth at 20 ppm in experiment [1] and in experiment [3] was at least 80% in each case. The same compound showed a pest or weed control at 200 ppm in experiment [2] of at least 50%.

On to `O=C(NCCc1ccc(Cl)cc1Cl)c1c(Cl)cncc1Oc1cccc(C2CC2)c1` [Compound 1.21, 3-chloro-5-(3-cyclopropyl-phenoxy)-N-[2-(2,4-dichlorophenyl)ethyl]pyridine-4-carboxamide], for which the inhibition of growth at 20 ppm in experiment [1] and in experiment [3] was at least 80% throughout. In experiment [2], this compound had a pest or weed control at 200 ppm of at least 50%.

Take `O=C(NCC(F)c1ccc(Cl)cc1Cl)c1cc(C2CC2)ncc1Oc1cccc(C2CC2)c1` (stereo not drawn) [Compound 1.22, 2-cyclopropyl-5-(3-cyclopropyl-phenoxy)-N-[2-(2,4-dichlorophenyl)-2-fluoro-ethyl]pyridine-4-carboxamide]: the inhibition of growth at 20 ppm in experiment [1] and in experiment [3] was at least 80% each time. Moreover, the pest or weed control at 200 ppm in experiment [2] is at least 50%.

For `O=C(NCC1(c2ccc(F)cc2)CCC1)c1cc(Cl)ncc1Oc1cccc(C2CC2)c1` [Compound 1.28, 2-chloro-5-(3-cyclopropyl-phenoxy)-N-[[1-(4-fluorophenyl)cyclobutyl]methyl] pyridine-4-carboxamide], the inhibition of growth at 20 ppm in experiment [4] was at least 80%.

Regarding `COc1ccc(CCNC(=O)c2cc(Cl)ncc2Oc2cccc(C3CC3)c2)cc1` [Compound 1.35, 2-chloro-5-(3-cyclopropyl-phenoxy)-N-[2-(4-methoxyphenyl)ethyl]pyridine-4-carboxamide], the inhibition of growth at 20 ppm in experiment [1] and in experiment [3] was at least 80% in each case. In addition, the pest or weed control at 200 ppm in experiment [2] is at least 50%.

As to `C#Cc1cccc(Oc2cnc(C)cc2C(=O)NCC(F)c2ccc(C)cc2C)c1` (stereo not drawn) [Compound 1.38, N-[2-(2,4-dimethylphenyl)-2-fluoro-ethyl]-5-(3-ethynylphenoxy)-2-methyl-pyridine-4-carboxamide], the inhibition of growth at 20 ppm in experiment [1] was at least 80%. In experiment [2], this compound had a pest or weed control at 200 ppm of at least 50%.

For `C#Cc1cccc(Oc2cnc(Br)cc2C(=O)NCC(F)c2ccc(C)cc2C)c1` (stereo not drawn) [Compound 1.43, 2-bromo-N-[2-(2,4-dimethylphenyl)-2-fluoro-ethyl]-5-(3-ethynylphenoxy) pyridine-4-carboxamide], the inhibition of growth at 20 ppm in experiment [1] and in experiment [3] was at least 80% throughout. Further, the pest or weed control at 200 ppm in experiment [2] was at least 50%.

Take `O=C(NCC(F)c1ccc(F)cc1F)c1cc(Cl)ncc1Oc1cccc(C2CC2)c1` (stereo not drawn) [Compound 1.58, 2-chloro-5-(3-cyclopropyl-phenoxy)-N-[2-(2,4-difluorophenyl)-2-fluoro-ethyl]pyridine-4-carboxamide]: the inhibition of growth at 20 ppm in experiment [1] and in experiment [3] was at least 80% each time. In addition, in experiment [2], the pest or weed control at 200 ppm was at least 50%.

For the compound `COc1cccc(Oc2cnc(Cl)cc2C(=O)NCC(F)c2ccc(Cl)cc2Cl)c1` (stereo not drawn) [Compound 1.61, 2-chloro-N-[2-(2,4-dichlorophenyl)-2-fluoro-ethyl]-5-(3-methoxyphenoxy) pyridine-4-carboxamide], the inhibition of growth at 20 ppm in experiment [1] and in experiment [3] was at least 80% in each case. In experiment [2], the pest or weed control at 200 ppm is at least 50%.

Turning to `CCc1ccc(C(F)CNC(=O)c2cc(Cl)ncc2Oc2cccc(C3CC3)c2)c(F)c1` (stereo not drawn) [Compound 1.80, 2-chloro-5-(3-cyclopropyl-phenoxy)-N-[2-(4-ethyl-2-fluoro-phenyl)-2-fluoro-ethyl]pyridine-4-carboxamide], the inhibition of growth at 20 ppm in experiment [1] and in experiment [3] was at least 80% throughout. In experiment [2], this compound gave a pest or weed control at 200 ppm of at least 50%.

With `C#Cc1ccc(C(F)CNC(=O)c2cc(Cl)ncc2Oc2cccc(C3CC3)c2)c(F)c1` (stereo not drawn) [Compound 1.82, 2-chloro-5-(3-cyclopropyl-phenoxy)-N-[2-(4-ethynyl-2-fluoro-phenyl)-2-fluoro-ethyl]pyridine-4-carboxamide], the inhibition of growth at 20 ppm in experiment [1] and in experiment [3] was at least 80% throughout. The same compound displayed a pest or weed control at 200 ppm in experiment [2] of at least 50%.

Regarding `COc1cncc(Oc2cccc(C3CC3)c2)c1C(=O)NCC(F)c1ccc(Cl)cc1Cl` (stereo not drawn) [Compound 1.91, 3-(3-cyclopropyl-phenoxy)-N-[2-(2,4-dichlorophenyl)-2-fluoro-ethyl]-5-methoxy-pyridine-4-carboxamide], the inhibition of growth at 20 ppm in experiment [1] and in experiment [3] was at least 80% each time. The pest or weed control at 200 ppm in experiment [2] was at least 50%.

For `Cc1cncc(Oc2cccc(C3CC3)c2)c1C(=O)NC[C@@H](F)c1ccc(Cl)cc1Cl` [Compound 1.93, 3-(3-cyclopropyl-phenoxy)-N-[(2S)-2-(2,4-dichlorophenyl)-2-fluoro-ethyl]-5-methyl-pyridine-4-carboxamide], the inhibition of growth at 20 ppm in experiment [1] and in experiment [3] was at least 80% throughout.
